# Experimental data reported in patent US10526585B2 (priority 2015, dated 2020).
# Assay type: biochemical
# Settings: pH 7.5
row,Compound,DON [ppm]
1,[Ca+2] [Ca^2+],1.98
2,[Cu+2] [Cu^2+],2.61
3,[Fe+2] [Fe^2+],2.17
4,"N[C@@H](CCCCNC1=CC(=O)C(=O)C=C1C[C@H](N)C(=O)O)C(=O)O [LTQ, lysine tyrosylquinone]",2.04
5,[Mg+2] [Mg^2+],1.90
6,[Mn+2] [Mn^2+],2.57
7,"O=C(O)c1cc(C(=O)O)c2c(n1)C(=O)C(=O)c1cc(C(=O)O)[nH]c1-2 [PCC, pyrroloquinoline quinone]",1.94
8,"COS(=O)(=O)[O-].C[n+]1c2ccccc2nc2ccccc21 [PMS, phenazine methosulphate]",1.95
9,[Zn+2] [Zn^2+],2.46
10,COC1=C(OC)C(=O)C(CC=C(C)C)=C(C)C1=O [coenzyme Q1],8.58
11,CN(C)c1ccc2nc3ccc(=[N+](C)C)cc-3sc2c1 [methylene blue],6.88
12,topaquinone [TPQ],2.41
13,tryptophan tryptophylquinone [TTQ],2.32
